Reference: the NIST ThermoML archive (doi:10.1021/je900550v)

Details: 101.33 kPa, Liquid; for speed of sound: Pulse-echo method; for mass density: Vibrating tube method

CC(C)C(=O)[O-].C[NH2+]CCO [2-hydroxy-N-methylethanaminium isobutyrate]
Details | mass density [kg/m3] | speed of sound [m/s] | viscosity [mPa·s]
308.15 K | 1036.92 | 1583.1 | –
308.4 K | 1036.77 | 1582.4 | –
308.65 K | 1036.6 | 1581.7 | –
308.9 K | 1036.44 | 1581 | –
309.15 K | 1036.28 | 1580.3 | –
309.4 K | 1036.11 | 1579.6 | –
309.65 K | 1035.95 | 1578.8 | –
309.9 K | 1035.79 | 1578.2 | –
310.15 K | 1035.62 | 1577.5 | –
310.4 K | 1035.46 | 1576.7 | –
310.65 K | 1035.29 | 1576 | –
310.91 K | 1035.13 | 1575.3 | –
311.16 K | 1034.97 | 1574.6 | –
311.4 K | 1034.81 | 1573.9 | –
311.65 K | 1034.64 | 1573.2 | –
311.91 K | 1034.48 | 1572.5 | –
312.16 K | 1034.32 | 1571.8 | –
312.41 K | 1034.15 | 1571.1 | –
312.66 K | 1033.99 | 1570.4 | –
312.91 K | 1033.82 | 1569.7 | –
313.15 K | – | – | 75.78
313.16 K | 1033.66 | 1569 | –
313.4 K | 1033.49 | 1568.3 | –
313.66 K | 1033.33 | 1567.5 | –
313.9 K | 1033.16 | 1566.8 | –
314.15 K | 1033 | 1566.1 | –
314.4 K | 1032.84 | 1565.4 | –
314.65 K | 1032.67 | 1564.7 | –
314.9 K | 1032.51 | 1564 | –
315.15 K | 1032.35 | 1563.3 | –
315.41 K | 1032.18 | 1562.6 | –
315.65 K | 1032.01 | 1561.9 | –
315.91 K | 1031.85 | 1561.2 | –
316.16 K | 1031.68 | 1560.5 | –
316.41 K | 1031.52 | 1559.8 | –
316.66 K | 1031.35 | 1559.1 | –
316.91 K | 1031.18 | 1558.4 | –
317.16 K | 1031.02 | 1557.7 | –
317.4 K | 1030.86 | 1557 | –
317.66 K | 1030.69 | 1556.2 | –
317.91 K | 1030.53 | 1555.5 | –
318.15 K | – | – | 60.1
318.16 K | 1030.36 | 1554.8 | –
318.41 K | 1030.19 | 1554.1 | –
318.65 K | 1030.03 | 1553.4 | –
318.9 K | 1029.87 | 1552.7 | –
319.16 K | 1029.7 | 1552 | –
319.41 K | 1029.53 | 1551.3 | –
319.65 K | 1029.37 | 1550.6 | –
319.91 K | 1029.2 | 1549.9 | –
320.16 K | 1029.03 | 1549.2 | –
320.41 K | 1028.87 | 1548.4 | –
320.65 K | 1028.7 | 1547.7 | –
320.91 K | 1028.54 | 1547 | –
321.15 K | 1028.37 | 1546.3 | –
321.41 K | 1028.2 | 1545.6 | –
321.66 K | 1028.03 | 1544.9 | –
321.9 K | 1027.87 | 1544.2 | –
322.15 K | 1027.7 | 1543.4 | –
322.41 K | 1027.54 | 1542.7 | –
322.65 K | 1027.37 | 1542 | –
322.91 K | 1027.2 | 1541.3 | –
323.15 K | – | – | 47.96
323.16 K | 1027.03 | 1540.6 | –
323.41 K | 1026.86 | 1539.9 | –
323.65 K | 1026.69 | 1539.2 | –
323.91 K | 1026.53 | 1538.5 | –
324.16 K | 1026.36 | 1537.7 | –
324.41 K | 1026.19 | 1537 | –
324.65 K | 1026.03 | 1536.3 | –
324.9 K | 1025.86 | 1535.6 | –
325.16 K | 1025.69 | 1534.9 | –
325.4 K | 1025.52 | 1534.2 | –
325.66 K | 1025.36 | 1533.5 | –
325.9 K | 1025.19 | 1532.8 | –
326.16 K | 1025.02 | 1532.1 | –
326.41 K | 1024.85 | 1531.4 | –
326.66 K | 1024.68 | 1530.7 | –
326.9 K | 1024.52 | 1529.9 | –
327.16 K | 1024.34 | 1529.2 | –
327.4 K | 1024.18 | 1528.5 | –
327.66 K | 1024.01 | 1527.8 | –
327.9 K | 1023.84 | 1527.1 | –
328.15 K | 1023.67 | 1526.4 | –
328.41 K | 1023.5 | 1525.7 | –
328.66 K | 1023.33 | 1524.9 | –
328.9 K | 1023.16 | 1524.2 | –
329.16 K | 1022.99 | 1523.5 | –
329.4 K | 1022.82 | 1522.8 | –
329.65 K | 1022.65 | 1522 | –
329.9 K | 1022.48 | 1521.3 | –
330.16 K | 1022.32 | 1520.6 | –
330.41 K | 1022.14 | 1519.9 | –
330.66 K | 1021.98 | 1519.1 | –
330.91 K | 1021.81 | 1518.4 | –
331.16 K | 1021.63 | 1517.7 | –
331.41 K | 1021.47 | 1517 | –
331.66 K | 1021.29 | 1516.2 | –
331.91 K | 1021.13 | 1515.5 | –
332.16 K | 1020.95 | 1514.8 | –
332.41 K | 1020.78 | 1514.1 | –
332.66 K | 1020.61 | 1513.4 | –
332.91 K | 1020.44 | 1512.7 | –
333.16 K | 1020.27 | 1511.9 | –
333.41 K | 1020.1 | 1511.2 | –
333.66 K | 1019.93 | 1510.5 | –
333.91 K | 1019.76 | 1509.8 | –
334.16 K | 1019.59 | 1509.1 | –
334.41 K | 1019.42 | 1508.3 | –
334.66 K | 1019.24 | 1507.6 | –
334.91 K | 1019.07 | 1506.9 | –
335.16 K | 1018.9 | 1506.2 | –
335.41 K | 1018.73 | 1505.5 | –
335.66 K | 1018.56 | 1504.7 | –
335.91 K | 1018.38 | 1504 | –
336.16 K | 1018.22 | 1503.3 | –
336.41 K | 1018.04 | 1502.6 | –
336.66 K | 1017.87 | 1501.9 | –
336.9 K | 1017.7 | 1501.2 | –
337.16 K | 1017.53 | 1500.4 | –
337.4 K | 1017.35 | 1499.7 | –
337.66 K | 1017.18 | 1499 | –
337.9 K | 1017.01 | 1498.3 | –
338.15 K | 1016.84 | 1497.7 | –
